Reference: patent US10577363B2, “Substituted piperidine compounds” (EPIZYME, INC., priority 2014, dated 2020)

How the values were obtained:
SMYD3 [1] = target: T1, SMYD3 (Homo sapiens (Human), UniProt Q9H7B4); assay: SMYD3 biochemical assay (SPA, 3H-SAM methylation of MEKK2 protein substrate); settings: read-out: SMYD3 Biochem IC50
Procedure, shortened: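 Enzyme: untagged full-length human SMYD3 from E. coli; substrate GST-tagged MEKK2 from insect cells. Buffer 25 mM Tris-Cl pH 8.0, 1 mM TCEP, 0.005% BSG/Tween 20. 30 min compound–enzyme preincubation at RT; 3H-SAM/MEKK2 start; stop with cold SAM (100 uM final); SPA readout in cpm.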

SMYD3 [2] = target: T1, SMYD3; assay: SMYD3 cell assay (Trimethyl-MEKK2 In-Cell Western in 293T/17 cells); assay type: cell-based; settings: read-out: SMYD3 Cell IC50
Procedure, shortened: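 In-Cell Western readout: methanol-fixed cells stained for trimethyl-MEKK2 and flag tag, ratio per well normalized to DMSO and background controls.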

T1 sequence (Q9H7B4 whole entry): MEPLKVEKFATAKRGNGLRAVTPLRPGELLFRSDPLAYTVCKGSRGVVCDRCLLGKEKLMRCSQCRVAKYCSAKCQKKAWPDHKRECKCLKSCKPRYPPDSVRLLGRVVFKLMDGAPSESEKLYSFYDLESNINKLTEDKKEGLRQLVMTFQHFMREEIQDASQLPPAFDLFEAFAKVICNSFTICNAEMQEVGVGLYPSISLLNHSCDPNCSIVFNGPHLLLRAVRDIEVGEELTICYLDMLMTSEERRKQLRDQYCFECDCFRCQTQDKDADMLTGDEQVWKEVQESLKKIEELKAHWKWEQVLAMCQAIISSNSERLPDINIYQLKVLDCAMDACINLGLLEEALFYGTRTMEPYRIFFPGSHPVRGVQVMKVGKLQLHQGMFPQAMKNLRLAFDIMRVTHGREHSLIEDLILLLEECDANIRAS

Compound	IC50 (SMYD3 [1]; Table 2A) [µM]	IC50 (SMYD3 [2]; Table 2A) [µM]	IC50 (SMYD3 [1]; average of n = 1 to n = 50) [µM]	IC50 (SMYD3 [2]; average of n = 1 to n = 50) [µM]
C[C@H]1C[C@@H](NC(=O)c2cc(C3CC3)on2)CCN1S(=O)(=O)CCCNCc1cccc(C(F)(F)F)c1 [compound 609, 5-cyclopropyl-N-((2S,4S)-2-methyl-1-((3-((3-(trifluoromethyl)benzyl)amino)propyl)sulfonyl)piperidin-4-yl)isoxazole-3-carboxamide]	0.0188	0.451		
CN(C)CCN(C)CCCS(=O)(=O)N1[C@@H]2CC[C@H]1C[C@@H](NC(=O)c1cc(C3CC3)on1)C2 [compound 610, 5-cyclopropyl-N-((1R,3r,5S)-8-((3-((2-(dimethylamino)ethyl)(methyl)amino)propyl)sulfonyl)-8-azabicyclo[3.2.1]octan-3-yl)isoxazole-3-carboxamide]	0.0194	0.332		
CC(C)CN1CCC(CS(=O)(=O)N2CC[C@@H](NC(=O)c3cc(C4CC4)on3)C[C@H]2C)CC1 [compound 611, 5-cyclopropyl-N-((2R,4R)-1-(((1-isobutylpiperidin-4-yl)methyl)sulfonyl)-2-methylpiperidin-4-yl)isoxazole-3-carboxamide]	0.02	1.03		
C[C@H]1C[C@@H](NC(=O)c2cc(C3CC3)on2)CCN1S(=O)(=O)CCCNCC1CCCCC1 [compound 612, N-((2S,4S)-1-((3-((cyclohexylmethyl)amino)propyl)sulfonyl)-2-methylpiperidin-4-yl)-5-cyclopropylisoxazole-3-carboxamide]	0.0207	0.217		
C[C@H]1CN(S(=O)(=O)CC2CCN(CCCC(F)(F)F)CC2)CC[C@H]1NC(=O)c1cc(C2CC2)on1 [compound 613, 5-cyclopropyl-N-((3S,4R)-3-methyl-1-(((1-(4,4,4-trifluorobutyl)piperidin-4-yl)methyl)sulfonyl)piperidin-4-yl)isoxazole-3-carboxamide]	0.0209	0.212		
C[C@H]1CN(S(=O)(=O)N2CCC(NCc3ccccc3)CC2)CC[C@H]1NC(=O)c1cc(C2CC2)on1 [compound 614, N-((3S,4R)-1-((4-(benzylamino)piperidin-1-yl)sulfonyl)-3-methylpiperidin-4-yl)-5-cyclopropylisoxazole-3-carboxamide]	0.0212	0.304		
C[C@H]1C[C@@H](NC(=O)c2cc(C3CC3)on2)CCN1S(=O)(=O)N1C2CCC1CNC2 [compound 615, N-((2S,4S)-1-((3,8-diazabicyclo[3.2.1]octan-8-yl)sulfonyl)-2-methylpiperidin-4-yl)-5-cyclopropylisoxazole-3-carboxamide]	0.0217	0.233		
C[C@@H]1C[C@H](NC(=O)c2cc(C3CC3)on2)CCN1C(=O)c1ccc(C2CCCNC2)cc1 (stereo partly drawn) [compound 616, 5-cyclopropyl-N-((2R,4R)-2-methyl-1-(4-(piperidin-3-yl)benzoyl)piperidin-4-yl)isoxazole-3-carboxamide]	0.0219	0.595		
CCN1CCN(S(=O)(=O)N2CC[C@H](NC(=O)c3cc(C4CC4)on3)C[C@@H]2C)CC1 [compound 617, 5-cyclopropyl-N-((2S,4S)-1-((4-ethylpiperazin-1-yl)sulfonyl)-2-methylpiperidin-4-yl)isoxazole-3-carboxamide]	0.0228	0.183		
C[C@H]1CN(S(=O)(=O)CC2CCNCC2)CC[C@H]1NC(=O)c1cc(C2CC2)on1 [compound 618, 5-cyclopropyl-N-((3S,4R)-3-methyl-1-((piperidin-4-ylmethyl)sulfonyl)piperidin-4-yl)isoxazole-3-carboxamide]	0.0232	0.22		
O=C(N[C@H]1C[C@H]2CC[C@@H](C1)N2S(=O)(=O)CC1CCN(CCN2CCOCC2)CC1)c1cc(C2CC2)on1 [compound 619, 5-cyclopropyl-N-((1R,3r,5S)-8-(((1-(2-morpholinoethyl)piperidin-4-yl)methyl)sulfonyl)-8-azabicyclo[3.2.1]octan-3-yl)isoxazole-3-carboxamide]	0.0232	0.592		
CNCCN(C)CCS(=O)(=O)N1[C@@H]2CC[C@H]1C[C@@H](NC(=O)c1cc(C3CC3)on1)C2 [compound 620, 5-cyclopropyl-N-((1R,3r,5S)-8-((2-(methyl(2-(methylamino)ethyl)amino)ethyl)sulfonyl)-8-azabicyclo[3.2.1]octan-3-yl)isoxazole-3-carboxamide]	0.0233	0.339		
C[C@H]1CN(S(=O)(=O)N2CCNCC2)CC[C@H]1NC(=O)c1cc(C2CC2)on1 [compound 621, 5-cyclopropyl-N-((3S,4R)-3-methyl-1-(piperazin-1-ylsulfonyl)piperidin-4-yl)isoxazole-3-carboxamide]	0.0234	0.223		
CNCCN(C)CCCS(=O)(=O)N1[C@@H]2CC[C@H]1C[C@@H](NC(=O)c1cc(C3CC3)on1)C2 [compound 622, 5-cyclopropyl-N-((1R,3r,5S)-8-((3-(methyl(2-(methylamino)ethyl)amino)propyl)sulfonyl)-8-azabicyclo[3.2.1]octan-3-yl)isoxazole-3-carboxamide]	0.0234	0.464		
C[C@H]1CN(S(=O)(=O)CC2CCN(CCO)CC2)CC[C@H]1NC(=O)c1cc(C2CC2)on1 [compound 623, 5-cyclopropyl-N-((3S,4R)-1-(((1-(2-hydroxyethyl)piperidin-4-yl)methyl)sulfonyl)-3-methylpiperidin-4-yl)isoxazole-3-carboxamide]	0.0237	0.231		
C[C@H]1CNCCN1S(=O)(=O)N1CC[C@H](NC(=O)c2cc(C3CC3)on2)C[C@@H]1C [compound 624, 5-cyclopropyl-N-((2S,4S)-2-methyl-1-(((S)-2-methylpiperazin-1-yl)sulfonyl)piperidin-4-yl)isoxazole-3-carboxamide]	0.0246	0.284		
C[C@H]1CN(S(=O)(=O)CC2CCN(C)CC2)CC[C@H]1NC(=O)c1cc(C2CC2)on1 [compound 625, 5-cyclopropyl-N-((3S,4R)-3-methyl-1-(((1-methylpiperidin-4-yl)methyl)sulfonyl)piperidin-4-yl)isoxazole-3-carboxamide]	0.0253	0.224		
C[C@H]1C[C@@H](NC(=O)c2cc(C3CC3)on2)CCN1S(=O)(=O)N1C[C@H]2C[C@@H]1CN2C [compound 626, 5-cyclopropyl-N-((2S,4S)-2-methyl-1-(((1R,4R)-5-methyl-2,5-diazabicyclo[2.2.1]heptan-2-yl)sulfonyl)piperidin-4-yl)isoxazole-3-carboxamide]	0.0253	0.157		
C[C@H]1CN(S(=O)(=O)c2ccc(C(C)(C)N)cc2)CC[C@H]1NC(=O)c1cc(C2CC2)on1 [compound 627, N-((3S,4R)-1-((4-(2-aminopropan-2-yl)phenyl)sulfonyl)-3-methylpiperidin-4-yl)-5-cyclopropylisoxazole-3-carboxamide]			0.0265	0.243
C[C@H]1CN(S(=O)(=O)CCCNCc2ccccc2)[C@@H](C)C[C@H]1NC(=O)c1cc(C2CC2)on1 [compound 628, N-((2S,4R,5S)-1-((3-(benzylamino)propyl)sulfonyl)-2,5-dimethylpiperidin-4-yl)-5-cyclopropylisoxazole-3-carboxamide]			0.0273	0.577
C[C@@H]1CN(S(=O)(=O)CC2CCNCC2)[C@H](C)C[C@@H]1NC(=O)c1cc(C2CC2)on1 [compound 629, 5-cyclopropyl-N-((2R,4S,5R)-2,5-dimethyl-1-((piperidin-4-ylmethyl)sulfonyl)piperidin-4-yl)isoxazole-3-carboxamide]			0.0282	0.407
C[C@H]1C[C@@H](NC(=O)c2cc(C3CC3)on2)CCN1S(=O)(=O)CCCNCC1CC1 [compound 630, 5-cyclopropyl-N-((2S,4S)-1-((3-((cyclopropylmethyl)amino)propyl)sulfonyl)-2-methylpiperidin-4-yl)isoxazole-3-carboxamide]			0.0294	0.396
C[C@H]1C[C@@H](NC(=O)c2cc(C3CC3)on2)CCN1S(=O)(=O)N1CC2CCC1CN2C (stereo partly drawn) [compound 631, 5-cyclopropyl-N-((2S,4S)-2-methyl-1-((5-methyl-2,5-diazabicyclo[2.2.2]octan-2-yl)sulfonyl)piperidin-4-yl)isoxazole-3-carboxamide]			0.0298	0.298
C[C@H]1CN(S(=O)(=O)CC2CCNCC2)[C@@H](C)C[C@H]1NC(=O)c1cc(C2CC2)on1 [compound 632, 5-cyclopropyl-N-((2S,4R,5S)-2,5-dimethyl-1-((piperidin-4-ylmethyl)sulfonyl)piperidin-4-yl)isoxazole-3-carboxamide]			0.0304	0.229
CC(C)NCCCS(=O)(=O)N1CC[C@H](NC(=O)c2cc(C3CC3)on2)C[C@@H]1C [compound 633, 5-cyclopropyl-N-((2S,4S)-1-((3-(isopropylamino)propyl)sulfonyl)-2-methylpiperidin-4-yl)isoxazole-3-carboxamide]			0.0304	0.291
C[C@@H]1CN(S(=O)(=O)N2CC[C@H](NC(=O)c3cc(C4CC4)on3)C[C@@H]2C)CCN1 [compound 634, 5-cyclopropyl-N-((2S,4S)-2-methyl-1-(((R)-3-methylpiperazin-1-yl)sulfonyl)piperidin-4-yl)isoxazole-3-carboxamide]			0.0318	0.176
C[C@H]1C[C@@H](NC(=O)c2cc(C3CC3)on2)CCN1S(=O)(=O)CCCNCC(C)(C)C [compound 635, 5-cyclopropyl-N-((2S,4S)-2-methyl-1-((3-(neopentylamino)propyl)sulfonyl)piperidin-4-yl)isoxazole-3-carboxamide]			0.0325	0.318
